Reference: ChEMBL document CHEMBL5518172, “Discovery of hydroxamate as a promising scaffold dually inhibiting metallo- and serine-β-lactamases” (Eur J Med Chem, 2024)

What was measured:
Bacteria [1] = assay: Inhibition of recombinant serine beta lactamase KPC-2 (unknown origin) expressed in Escherichia coli BL21 (DE3) cells using meropenem as substrate at 20 uM by spectrometric analysis relative to control
Bacteria [2] = assay: Inhibition of recombinant serine beta lactamase OXA-48 (unknown origin) expressed in Escherichia coli BL21 (DE3) cells using meropenem as substrate at 20 uM by spectrometric analysis relative to control
[3] = molecular target: Metallo-beta-lactamase type 2 (Bacteria, UniProt C7C422); assay: Inhibition of recombinant NDM-1 (unknown origin) expressed in Escherichia coli BL21 (DE3) cells using meropenem as substrate by spectrometric analysis
Chain of Metallo-beta-lactamase type 2 (C7C422 whole entry): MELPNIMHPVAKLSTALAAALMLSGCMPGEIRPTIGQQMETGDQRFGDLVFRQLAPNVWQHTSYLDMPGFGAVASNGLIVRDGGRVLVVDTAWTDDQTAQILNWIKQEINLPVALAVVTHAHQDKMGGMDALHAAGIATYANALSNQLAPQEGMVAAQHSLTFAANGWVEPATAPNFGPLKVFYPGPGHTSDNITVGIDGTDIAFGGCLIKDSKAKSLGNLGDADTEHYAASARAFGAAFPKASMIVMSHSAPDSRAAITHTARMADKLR

[4] = Inhibition of recombinant metallo-beta-lactamase IMP-1 (unknown origin) expressed in Escherichia coli BL21 (DE3) cells using meropenem as substrate by spectrometric analysis; set-up: species or system Bacteria
[5] = Inhibition of recombinant serine beta lactamase OXA-48 (unknown origin) expressed in Escherichia coli BL21 (DE3) cells using meropenem as substrate by spectrometric analysis; set-up: species or system Bacteria
[6] = Inhibition of recombinant serine beta lactamase KPC-2 (unknown origin) expressed in Escherichia coli BL21 (DE3) cells using meropenem as substrate by spectrometric analysis; set-up: species or system Bacteria
Escherichia coli [7] = assay: Synergistic antibacterial activity against Escherichia coli BL21 (DE3) harboring NDM-1 assessed as meropenem MIC at 64 microg/ml measured after 16 hrs by CLSI protocol based broth microdilution method (reference value: 256 microg/ml); type: functional; conditions: dose 64 µg/ml
Escherichia coli [8] = assay: Synergistic antibacterial activity against Escherichia coli BL21 (DE3) harboring metallo-beta-lactamase IMP-1 assessed as meropenem MIC at 64 microg/ml measured after 16 hrs by CLSI protocol based broth microdilution method (reference value: 64 microg/ml); type: functional; conditions: dose 64 µg/ml
Escherichia coli [9] = assay: Synergistic antibacterial activity against Escherichia coli BL21 (DE3) harboring serine beta lactamase KPC-2 assessed as meropenem MIC at 64 microg/ml measured after 16 hrs by CLSI protocol based broth microdilution method (reference value: 16 microg/ml); type: functional; conditions: dose 64 µg/ml
Escherichia coli [10] = assay: Synergistic antibacterial activity against Escherichia coli BL21 (DE3) harboring serine beta lactamase OXA-48 assessed as meropenem MIC at 64 microg/ml measured after 16 hrs by CLSI protocol based broth microdilution method (reference value: 1 microg/ml); type: functional; conditions: dose 64 µg/ml
Escherichia coli [11] = assay: Synergistic antibacterial activity against Escherichia coli BL21 (DE3) harboring NDM-1 assessed as fold decrease in meropenem MIC at 64 microg/ml measured after 16 hrs by CLSI protocol based broth microdilution method; type: functional; conditions: dose 64 µg/ml
Escherichia coli [12] = assay: Synergistic antibacterial activity against Escherichia coli BL21 (DE3) harboring metallo-beta lactamase IMP-1 assessed as fold decrease in meropenem MIC at 64 microg/ml measured after 16 hrs by CLSI protocol based broth microdilution method; type: functional; conditions: dose 64 µg/ml
Escherichia coli [13] = assay: Synergistic antibacterial activity against Escherichia coli BL21 (DE3) harboring serine beta lactamase OXA-48 assessed as fold decrease in meropenem MIC at 64 microg/ml measured after 16 hrs by CLSI protocol based broth microdilution method; type: functional; conditions: dose 64 µg/ml
[14] = molecular target: Metallo-beta-lactamase type 2 (Bacteria) (UniProt C7C422); assay: Inhibition of recombinant NDM-1 (unknown origin) expressed in Escherichia coli BL21 (DE3) cells using meropenem as substrate at 20 uM by spectrometric analysis relative to control
Chain of Metallo-beta-lactamase type 2 (Bacteria) (C7C422 whole entry): as above

Bacteria [15] = assay: Inhibition of recombinant metallo-beta-lactamase IMP-1 (unknown origin) expressed in Escherichia coli BL21 (DE3) cells using cefazolin as substrate at 20 uM by spectrometric analysis relative to control
Bacteria [16] = assay: Inhibition of recombinant metallo-beta-lactamase ImiS (unknown origin) expressed in Escherichia coli BL21 (DE3) cells using meropenem as substrate at 20 uM by spectrometric analysis relative to control
Bacteria [17] = assay: Inhibition of recombinant metallo-beta-lactamase L-1 (unknown origin) expressed in Escherichia coli BL21 (DE3) cells using cefazolin as substrate at 20 uM by spectrometric analysis relative to control
Escherichia coli [18] = assay: Synergistic antibacterial activity against Escherichia coli BL21 (DE3) harboring serine beta lactamase KPC-2 assessed as fold decrease in meropenem MIC at 64 microg/ml measured after 16 hrs by CLSI protocol based broth microdilution method; type: functional; conditions: dose 64 µg/ml

SMILES | inhibition (Bacteria [1]) | inhibition (Bacteria [2]) | IC50 [3] | IC50 [4] | IC50 [5] | IC50 [6] | MIC (Escherichia coli [7]) | MIC (Escherichia coli [8]) | MIC (Escherichia coli [9]) | MIC (Escherichia coli [10]) | fold change (FC) (Escherichia coli [11]) | fold change (FC) (Escherichia coli [12]) | fold change (FC) (Escherichia coli [13]) | inhibition [14] | inhibition (Bacteria [15]) | inhibition (Bacteria [16]) | inhibition (Bacteria [17]) | fold change (FC) (Escherichia coli [18])
O=C(CCC1CCCCC1)NOC(=O)OCc1ccccc1 | > 90% | > 90% | 1.27 µM | 6.48 µM | 1.99 µM | 0.6 µM | 64 µg/mL | 32 µg/mL | 16 µg/mL | 0.5 µg/mL | 2 | 2 | 2 | – | – | – | – | –
O=C(OCc1ccccc1)ONC(=O)c1ccccc1 | – | – | 2.62 µM | 2.38 µM | > 50 µM | > 50 µM | 128 µg/mL | 64 µg/mL | 16 µg/mL | 1 µg/mL | – | – | – | > 90% | > 90% | < 42% | < 42% | –
O=C(CCc1ccccc1)NOC(=O)OCc1ccccc1 | > 90% | > 90% | 2.18 µM | 1.69 µM | 3.09 µM | 2.66 µM | 64 µg/mL | 32 µg/mL | 8 µg/mL | 1 µg/mL | 2 | 2 | – | > 90% | > 90% | < 42% | < 42% | 2
CCOC(=O)ONC(=O)CCc1ccccc1 | – | – | 5.03 µM | 1.83 µM | 8.5 µM | 7.7 µM | 128 µg/mL | 32 µg/mL | 8 µg/mL | 0.5 µg/mL | 2 | 2 | 2 | – | – | – | – | 2
O=C(OCc1ccccc1)ONC(=O)C1CCCCC1 | – | – | 41.1 µM | 27.2 µM | 6.71 µM | 41.9 µM | 128 µg/mL | 64 µg/mL | 16 µg/mL | 1 µg/mL | – | – | – | – | – | – | – | –
CC(C)COC(=O)ONC(=O)CCc1ccccc1 | > 90% | > 90% | 6.01 µM | 12.4 µM | 2.74 µM | 4.56 µM | 128 µg/mL | 32 µg/mL | 8 µg/mL | 1 µg/mL | 2 | 2 | – | – | – | – | – | 2
CCOC(=O)ONC(=O)C(CC)c1ccccc1 (centres undefined) | – | – | 37.4 µM | 32.2 µM | 32.7 µM | 28 µM | 128 µg/mL | 32 µg/mL | 16 µg/mL | 1 µg/mL | 2 | 2 | – | – | – | – | – | –
CCCCCOC(=O)ONC(=O)CCc1ccccc1 | – | – | 4.72 µM | 1.73 µM | 9.08 µM | 4.51 µM | 64 µg/mL | 16 µg/mL | 8 µg/mL | 1 µg/mL | 2 | 2 | – | > 90% | > 90% | < 42% | < 42% | 2
CCOC(=O)ONC(=O)CC(c1ccccc1)c1ccccc1 | – | – | 2.24 µM | 1.64 µM | 10 µM | 13.1 µM | 128 µg/mL | 64 µg/mL | 8 µg/mL | 1 µg/mL | – | – | – | > 90% | > 90% | < 42% | < 42% | 2
CCOC(=O)ONC(=O)CCCc1ccccc1 | > 90% | > 90% | 0.99 µM | 2.89 µM | 2.88 µM | 0.98 µM | 64 µg/mL | 16 µg/mL | 4 µg/mL | 0.5 µg/mL | 2 | 2 | 2 | > 90% | > 90% | < 42% | < 42% | 2
CCCCCOC(=O)ONC(=O)C(CC)c1ccccc1 (centres undefined) | – | – | 35.3 µM | 23 µM | 22.3 µM | 17.5 µM | 128 µg/mL | 32 µg/mL | 8 µg/mL | 1 µg/mL | 2 | 2 | – | – | – | – | – | 2
CCOC(=O)ONC(=O)CCC1CCCCC1 | > 90% | > 90% | 3.27 µM | 3.03 µM | 3.45 µM | 1.29 µM | 64 µg/mL | 32 µg/mL | 16 µg/mL | 0.063 µg/mL | 2 | 2 | 16 | – | – | – | – | –
CCCCCOC(=O)ONC(=O)CCCc1ccccc1 | > 90% | > 90% | 1.87 µM | 0.85 µM | 1.03 µM | 1.47 µM | 64 µg/mL | 16 µg/mL | 8 µg/mL | 0.5 µg/mL | 2 | 2 | 2 | > 90% | > 90% | < 42% | < 42% | 2
CC(=O)NOC(=O)OCc1ccccc1 | – | – | 3.21 µM | 2.42 µM | > 50 µM | > 50 µM | 64 µg/mL | 32 µg/mL | 16 µg/mL | 1 µg/mL | 2 | 2 | – | > 90% | > 90% | < 42% | < 42% | –
CC(C)COC(=O)ONC(=O)CCCc1ccccc1 | > 90% | > 90% | 1.87 µM | 0.85 µM | 1.03 µM | 1.47 µM | 64 µg/mL | 32 µg/mL | 8 µg/mL | 0.5 µg/mL | 2 | 2 | 2 | > 90% | > 90% | < 42% | < 42% | 2
O=C(CC(c1ccccc1)c1ccccc1)NOC(=O)OCc1ccccc1 | – | – | 0.84 µM | 0.65 µM | 5.45 µM | 1.96 µM | 64 µg/mL | 64 µg/mL | 8 µg/mL | 0.5 µg/mL | – | – | 2 | > 90% | > 90% | < 42% | < 42% | 2
